Assay results as given in US8282952B2, “Insect attractant” (Activetrad (Proprietary) Limited, priority 2007, dated 2012).

What was measured:
[1] = test system: Female medflies; experiment: Delta trap catches in temperature controlled room, released female medflies; conditions: for effect on medfly attraction when added to NATC 1%: Experiment 22
[2] = test system: Female medflies; experiment: Delta trap catches in orchards, released female medflies; assay type: in vivo, Ceratitis capitata

SMILES: Cc1cnc(C)c(C)n1 [2,3,5-Trimethyl pyrazine]
- effect on medfly attraction when added to NATC 1% [1]: suppressed medfly attraction

SMILES: CC(=O)OCC[N+](C)(C)C.[Cl-] [Acetyl choline chloride]
- times more attractive than the tri-ethanolamine mixtures ([1]; as amine in the NATC/amine/NH4Ac/Molasses mixture): about 3 times
- more medflies attracted than Choline chloride (number) ([1]; in vivo): 284.2
- more medflies attracted than Choline chloride (percent) ([1]; in vivo): 93%

SMILES: C=C(C)[C@H]1Cc2c(ccc3c2O[C@@H]2COc4cc(OC)c(OC)cc4[C@@H]2C3=O)O1 [Rotenone]
- effect of the bait poison combined with NATC in YP on female medfly trap catches ([2]; Experiment 7, 0.5% poison added to NATC 1% in YP vs NATC 1% in YP alone): small differences

SMILES: CC(=O)O [acetic acid]
- effect of addition on medfly trap catches with TEA ([1]; Experiment 14, added to NATC + TEA): seems to decrease

SMILES: COc1cccc(C(N)=O)c1 [3-Methoxy benzamide]
- effect on medfly attraction when added to NATC 1% [1]: suppressed medfly attraction

SMILES: CCOC(=O)CC(SP(=S)(OC)OC)C(=O)OCC (centres unmarked) [Malathion]
- times more female medflies caught with poison than without it ([2]; in vivo): ~1.5 times

SMILES: CN(C)Cc1c[nH]c2ccccc12 [Gramine]
- effect on medfly attraction when added to NATC 1% [1]: suppressed medfly attraction

SMILES: CC(=O)O.N [Ammonium acetate]
- attracting partner for the NATC-0.5%+TEA-0.5% combination compared with Maltol 0.5% ([1]; in vivo): stronger attracting partner
- increase of trap catches by addition to the NATC-1%+TEA-1% mixture ([1]; in vivo): 272.5%
